# Reference: patent US20070111258A1, “Compositions and methods for modulating the acute phase response” (priority 2005, published 2007)
# How the values were obtained:
# [1] = test system: CREBH mRNA; experiment: CREBH mRNA induction in H2.35 cells (Northern blot, quantitative real-time RT-PCR); type: cell-based; conditions: murine H2.35 hepatoma cells; IL6 40 ng/ml, TNFα 20 ng/ml, IL1β 40 ng/ml, DTT 5 mM, Tg 0.5 μM, Tm 5 μg/ml, BFA 0.5 μg/ml; 4, 8, 12 hours
# Protocol: FIG. 1 depicts the induction of expression of CREBH during fetal liver development and by proinflammatory cytokines. (A) Structural comparison of CREBH and ATF6. The domains are indicated by residue numbers of amino acids. (B) Northern blot analysis of CREBH mRNA levels in various tissues from mice. Tissue samples were collected from 3-month-old wild-type C57BL/6J mice. Levels of β-actin mRNA were determined for control of sample loading. (C) Expression profile of CREBH mRNA in fetal livers during embryogenesis. (D) Induction of CREBH mRNA in murine hepatoma cell line H2.35 under IL6 (40 ng/ml) stimulation for various time points. For panels A-D, experiments were performed at least 3 times and representative data are shown.
# FIG. 2 depicts the analysis of gene expression in H2.35 cells. H2.35 cells were treated with 20 ng/ml TNFα, 40 ng/ml IL1β, 20 μg.ml LPS, 5 mM DTT, 0.5 μM Tg, 5 μg/ml Tm or 0.5 μg/ml BFA for 4, 8 and 12 hours, respectively. Levels of CREBH mRNA (A) and spliced XBP1 mRNA (B) in H2.35 were determined by quantitative real-time RT-PCR. Fold changes of mRNA induction were determined after normalization of the mRNA levels to internal control 18S ribosomal RNA levels. […] However, expression from the SAP or CRP promoter-reporter plasmids is sufficiently measurable in H2.35 cells so that it is possible to investigate transcriptional activation effects of CREBH on the CRP and SAP promoters by reporter assays in H2.35 cells. These reporter experiments are not possible in non-hepatocyte cell lines. However, for non-hepatocyte cell lines, such as wild-type and mutant CHO cells, CREBH cleavage and activation could be measured using the UPRE reporter assay. (C) Summary of stimuli that induce CREBH mRNA, NF-κB activation and the UPR in H2.35 and HepG2 cells. (D) Expression of BiP and GRP94 in H2.35 cells over-expressing CREBH or ATF6. H2.35 cells in a 35 mm collagen-coated plate were transfected with 1.5 μg empty DNA vector, vector expressing the nuclear form of CREBH (CREBH-N) or vector expressing nuclear form of ATF6 (ATF6 p50), respectively. Expression levels of BiP and GRP 94 were determined by Western blot analysis by using a murine and —BiP monoclonal antibody and a murine anti-GRP94 monoclonal antibody, respectively. The membranes were re-blotted with an anti-α-actin antibody for control of sample loading.
# Northern blot analysis was performed according to standard procedures (Sambrook et al., 1989). ^32P-labeled probes were prepared using a random prime labeling system (Amersham Pharmacia, Piscataway, N.J., USA). A 210 bp mouse CREBH cDNA fragment, a 250 bp mouse CRP cDNA fragment and a 260 bp mouse SAP cDNA fragment were amplified from murine total RNA by reverse transcription-PCR system (Roche Applied Science), respectively, and were used as probes for Northern blot analyses. Total RNA (15 μg) per sample purified from cultured cells or murine tissues was used for Northern blot analysis. Quantitative real-time RT-PCR was performed as previously described (Back et al., 2005). Briefly, total cellular RNA prepared was reverse-transcribed to cDNA using a random primer (Applied Biosystems). The reaction mixture, containing SYBR Green PCR Master Mix (Applied Biosystems), was run in a 7900HT Fast Real-Time PCR System (Applied Biosystems). Real-time PCR primer sequences for quantification of murine XBP1 mRNA splicing are: the forward primer 5′-[…]-3′, and the reverse primer 5′-[…]-3′. Other primer sequences were designed by Primer Express (Applied Biosystems).
# [2] = test system: CRP and SAP mRNA; experiment: CRP and SAP mRNA in mouse primary hepatocytes (Northern blot); type: cell-based; conditions: Tm 5 μg/ml 2, 4, 6, 8 hours
# Protocol: Primary hepatocytes were isolated from fetal livers of C57BL/6J mice at embryonic stage E18, and were then treated with Tm (5 μg/ml) for 2, 4, 6, and 8 hours. Total RNA was isolated and subjected to Northern blot analysis to determine levels of CRP, SAP and BiP mRNAs (upper panel). Levels of spliced XBP1 mRNA were determined by quantitative real-time RT-PCR (lower panel). For panels A-B, experiments were performed at least 3 times and representative data are shown. […] Quantitative real-time RT-PCR was used to determine the mRNA levels.
# Primary hepatocytes were isolated from fetal livers of C57BL/6J mice at embryonic stage E18 as previously described (Mackey and Darlington, 2004).
substance,measurement,setting,value
tunicamycin [Tm],induction of CREBH mRNA,[1],minor effect
same,expression of the CRP and SAP mRNA,[2],increased expression of the CRP and SAP mRNA in a time-dependent manner
